From patent US20250236608A1, “EGFR INHIBITORS” (Blueprint Medicines Corporation, priority 2022, published 2025) come the findings set out here.

pIC50: −log10 of the molar value.

In experiment [1] the target is EGFR L858R (Homo sapiens (Human), UniProt P00533, L858R). The experiment is described as follows: Biochemical EGFR inhibition assay, EGFR L858R. As to conditions: Caliper mobility shift; 1.0 mM ATP or ATP Km; read-out: Enz EGFR_L858R IC50.
Experiment [2] has as its target pEGFR (Tyr1068) in PC-9 cells (Ex19Del) (Homo sapiens (Human), UniProt P00533, DEL746-750). The experiment in a line: PC-9 pEGFR AlphaLISA assay. The experiment is classed as cell-based. As to conditions: 4 hours incubation, p-EGFR (Tyr1068) AlphaLISA, read-out: Ext pEGFR_PC-9 Ex19Del IC50. In a few lines: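 Phospho-EGFR (Tyr1068) was quantified by AlphaLISA SureFire Ultra in lysates of PC-9 cells exposed for 4 h to compound (4-fold, 10-point dilutions).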
(Alpha assays give light when donor and acceptor beads are brought close together.)

For experiment [3], the target named is EGFR (d746-750) (Homo sapiens (Human), UniProt P00533, DEL746-750). The experiment in a line: Biochemical EGFR inhibition assay, EGFR (d746-750). The following applies: Caliper mobility shift; 1.0 mM ATP or ATP Km; read-out: Enz EGFR_Exon19-del746-750 IC50.
Chain of EGFR (d746-750) (P00533 other isoform, or with tags, fused parts or gaps del 1-694/del 746-750 limits assumed): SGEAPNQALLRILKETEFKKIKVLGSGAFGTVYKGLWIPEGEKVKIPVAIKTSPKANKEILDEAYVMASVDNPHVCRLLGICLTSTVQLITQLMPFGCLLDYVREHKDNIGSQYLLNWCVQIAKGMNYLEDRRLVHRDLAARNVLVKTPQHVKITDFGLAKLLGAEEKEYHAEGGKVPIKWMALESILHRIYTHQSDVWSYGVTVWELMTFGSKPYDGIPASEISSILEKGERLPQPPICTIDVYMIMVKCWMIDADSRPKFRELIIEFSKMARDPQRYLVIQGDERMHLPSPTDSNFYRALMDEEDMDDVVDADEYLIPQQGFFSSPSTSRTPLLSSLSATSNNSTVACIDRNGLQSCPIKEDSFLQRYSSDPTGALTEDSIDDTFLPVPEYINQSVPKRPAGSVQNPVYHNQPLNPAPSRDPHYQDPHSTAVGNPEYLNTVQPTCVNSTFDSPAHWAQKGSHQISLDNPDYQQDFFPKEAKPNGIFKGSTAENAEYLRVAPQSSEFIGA

Chain of EGFR L858R (P00533 25-1210 L858R): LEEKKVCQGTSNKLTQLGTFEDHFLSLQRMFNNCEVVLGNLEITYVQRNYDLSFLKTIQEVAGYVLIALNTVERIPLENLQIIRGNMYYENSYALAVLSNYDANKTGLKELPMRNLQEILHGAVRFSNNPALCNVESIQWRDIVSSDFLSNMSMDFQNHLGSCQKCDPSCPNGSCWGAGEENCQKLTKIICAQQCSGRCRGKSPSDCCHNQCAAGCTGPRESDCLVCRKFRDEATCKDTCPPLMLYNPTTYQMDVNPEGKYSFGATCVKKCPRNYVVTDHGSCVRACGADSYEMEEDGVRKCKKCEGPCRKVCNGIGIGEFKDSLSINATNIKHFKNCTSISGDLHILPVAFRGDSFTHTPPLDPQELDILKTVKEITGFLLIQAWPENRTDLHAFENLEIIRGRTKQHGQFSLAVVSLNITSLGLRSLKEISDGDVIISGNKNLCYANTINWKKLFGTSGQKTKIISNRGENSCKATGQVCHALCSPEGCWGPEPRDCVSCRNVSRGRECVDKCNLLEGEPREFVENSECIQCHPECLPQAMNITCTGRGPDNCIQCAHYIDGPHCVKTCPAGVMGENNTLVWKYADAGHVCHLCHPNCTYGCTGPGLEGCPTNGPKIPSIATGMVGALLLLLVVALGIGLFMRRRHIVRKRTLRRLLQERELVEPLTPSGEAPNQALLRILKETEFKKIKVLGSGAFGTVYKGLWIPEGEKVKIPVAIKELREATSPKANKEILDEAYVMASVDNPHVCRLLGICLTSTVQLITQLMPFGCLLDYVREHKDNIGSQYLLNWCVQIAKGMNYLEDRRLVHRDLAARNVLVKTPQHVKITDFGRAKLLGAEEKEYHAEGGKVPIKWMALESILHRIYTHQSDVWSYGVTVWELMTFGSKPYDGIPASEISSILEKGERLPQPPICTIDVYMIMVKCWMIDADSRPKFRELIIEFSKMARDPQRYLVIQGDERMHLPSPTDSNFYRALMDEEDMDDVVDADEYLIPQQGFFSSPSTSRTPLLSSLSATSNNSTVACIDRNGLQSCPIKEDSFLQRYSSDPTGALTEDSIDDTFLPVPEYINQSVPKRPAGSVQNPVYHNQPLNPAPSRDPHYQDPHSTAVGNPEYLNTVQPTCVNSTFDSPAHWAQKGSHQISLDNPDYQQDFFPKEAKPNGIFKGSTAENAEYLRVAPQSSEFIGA
Chain of pEGFR (Tyr1068) in PC-9 cells (Ex19Del) (P00533 other isoform, or with tags, fused parts or gaps del 746-750): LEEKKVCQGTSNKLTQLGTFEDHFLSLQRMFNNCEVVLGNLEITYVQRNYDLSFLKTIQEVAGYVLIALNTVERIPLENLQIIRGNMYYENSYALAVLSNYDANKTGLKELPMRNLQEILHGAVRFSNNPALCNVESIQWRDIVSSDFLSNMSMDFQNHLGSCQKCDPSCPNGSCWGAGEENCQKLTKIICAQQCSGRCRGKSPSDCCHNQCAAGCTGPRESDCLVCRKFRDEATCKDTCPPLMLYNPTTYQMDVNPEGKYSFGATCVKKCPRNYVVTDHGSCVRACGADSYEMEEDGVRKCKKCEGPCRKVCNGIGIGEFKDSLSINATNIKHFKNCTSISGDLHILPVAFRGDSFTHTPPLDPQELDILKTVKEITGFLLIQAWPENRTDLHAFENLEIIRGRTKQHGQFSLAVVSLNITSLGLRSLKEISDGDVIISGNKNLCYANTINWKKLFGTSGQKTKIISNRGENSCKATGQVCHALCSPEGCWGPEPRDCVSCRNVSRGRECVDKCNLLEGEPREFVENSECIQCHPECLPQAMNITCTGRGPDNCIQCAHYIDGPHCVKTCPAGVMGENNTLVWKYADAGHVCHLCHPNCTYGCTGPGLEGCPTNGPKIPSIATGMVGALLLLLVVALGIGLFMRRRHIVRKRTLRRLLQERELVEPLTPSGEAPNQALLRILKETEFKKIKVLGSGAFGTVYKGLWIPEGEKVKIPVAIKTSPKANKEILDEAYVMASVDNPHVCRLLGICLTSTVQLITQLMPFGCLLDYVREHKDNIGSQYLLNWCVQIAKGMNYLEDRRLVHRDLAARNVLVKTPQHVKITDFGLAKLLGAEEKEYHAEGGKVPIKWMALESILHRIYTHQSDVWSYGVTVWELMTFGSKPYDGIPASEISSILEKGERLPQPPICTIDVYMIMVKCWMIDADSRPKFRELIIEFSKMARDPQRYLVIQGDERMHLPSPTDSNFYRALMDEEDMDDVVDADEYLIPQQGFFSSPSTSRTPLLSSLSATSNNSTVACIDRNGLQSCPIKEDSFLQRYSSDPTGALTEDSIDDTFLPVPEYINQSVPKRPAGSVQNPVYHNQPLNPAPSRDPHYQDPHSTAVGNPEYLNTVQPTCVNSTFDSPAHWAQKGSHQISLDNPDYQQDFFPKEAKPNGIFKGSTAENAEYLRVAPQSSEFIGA

`COc1cc2ncnc(-c3cn(C)nc3-c3cccc(O)c3)c2nc1NC(=O)C1(C(F)(F)F)CC1` [Example 422, N-(4-(3-(3-hydroxyphenyl)-1-methyl-1H-pyrazol-4-yl)-7-methoxypyrido[3,2-d]pyrimidin-6-yl)-1-(trifluoromethyl)cyclopropane-1-carboxamide]: the pIC50 in experiment [1] is 8.17; in experiment [2], 8.39; in experiment [3], 9.00.

For the compound `COc1cc2ncnc(-c3cn(CC(F)F)nc3-c3ccccc3)c2cc1NC(=O)c1cnc(C)s1` [Example 274, N-(4-(1-(2,2-difluoroethyl)-3-phenyl-1H-pyrazol-4-yl)-7-methoxyquinazolin-6-yl)-2-methylthiazole-5-carboxamide], the pIC50 is 8.82 in experiment [1], 9.22 in experiment [2] and 9.05 in experiment [3].

`CN(C)CCOc1cc2ncnc(-c3cn(C)nc3-c3ccccc3)c2nc1NC(=O)C1(C(F)(F)F)CC1` [Example 434, N-(7-(2-(dimethylamino)ethoxy)-4-(1-methyl-3-phenyl-1H-pyrazol-4-yl)pyrido[3,2-d]pyrimidin-6-yl)-1-(trifluoromethyl)cyclopropane-1-carboxamide]: the pIC50 is 8.17 in experiment [1], 8.46 in experiment [2] and 8.70 in experiment [3].

`COc1cc2ncnc(-c3cn(C)nc3-c3ccc(F)cc3)c2cc1NC(=O)c1cn(C)nc1C` [Example 305, N-(4-(3-(4-fluorophenyl)-1-methyl-1H-pyrazol-4-yl)-7-methoxyquinazolin-6-yl)-1,3-dimethyl-1H-pyrazole-4-carboxamide]: the pIC50 in experiment [1] is 8.29; in experiment [2], 8.46; in experiment [3], 8.48.

Turning to `COc1cc2ncnc(-c3cn(C)nc3-c3ccccc3)c2cc1NC(=O)C1(c2cccnc2)CC1` [Example 216, N-(7-methoxy-4-(1-methyl-3-phenyl-1H-pyrazol-4-yl)quinazolin-6-yl)-1-(pyridin-3-yl)cyclopropane-1-carboxamide], the pIC50 in experiment [1] was 8.68; in experiment [2] it was 8.42; in experiment [3], 9.05.

Turning to `COc1cc2ncnc(-c3cn(C)nc3-c3ccccc3)c2nc1OC(=O)N1CCOC[C@H]1C` [Example 56, 7-methoxy-4-(1-methyl-3-phenyl-1H-pyrazol-4-yl)pyrido[3,2-d]pyrimidin-6-yl (R)-3-methylmorpholine-4-carboxylate], the negative-log IC50 (pIC50) was 8.47 in experiment [1], 8.52 in experiment [2] and 8.68 in experiment [3].

As to `COc1cc2ncnc(-c3cn(CC4CC4)nc3-c3ccccc3)c2nc1NC(=O)[C@@]12C[C@@H]1CN(C)C2` (single isomer, unassigned) [Example 408, (1R,5R)—N-(4-(1-(cyclopropylmethyl)-3-phenyl-1H-pyrazol-4-yl)-7-methoxypyrido[3,2-d]pyrimidin-6-yl)-3-methyl-3-azabicyclo[3.1.0]hexane-1-carboxamide or (1S,5S)—N-(4-(1-(cyclopropylmethyl)-3-phenyl-1H-pyrazol-4-yl)-7-methoxypyrido[3,2-d]pyrimidin-6-yl)-3-methyl-3-azabicyclo[3.1.0]hexane-1-carboxamide], the pIC50 in experiment [1] was 8.82; in experiment [2], 9.15; in experiment [3] it was 9.15.

In the case of `COc1cc2ncnc(-c3cn(C)nc3-c3ccccc3)c2nc1O[C@H](C)c1cn(C)nn1` [Example 43, (R)-7-methoxy-6-(1-(1-methyl-1H-1,2,3-triazol-4-yl)ethoxy)-4-(1-methyl-3-phenyl-1H-pyrazol-4-yl)pyrido[3,2-d]pyrimidine], the pIC50 in experiment [1] was 8.85; in experiment [2], 8.72; in experiment [3], 9.10.

On to `COc1cc2ncnc(-c3cn(C)nc3-c3ccccc3)c2cc1NC(=O)[C@H](C)N(C)C` (single isomer, unassigned) [Example 237, (R)-2-(dimethylamino)-N-(7-methoxy-4-(1-methyl-3-phenyl-1H-pyrazol-4-yl)quinazolin-6-yl) propenamide or (S)-2-(dimethylamino)-N-(7-methoxy-4-(1-methyl-3-phenyl-1H-pyrazol-4-yl)quinazolin-6-yl) propenamide], for which the pIC50 in experiment [1] is 8.27; in experiment [2], 8.18; in experiment [3], 8.70.

For the compound `COc1cc2ncnc(-c3cn(C)nc3-c3ccccc3)c2cc1NC(=O)N1CCN(C)[C@@H]2C[C@@H]21` (stereo in doubt) [Example 186, N-[7-methoxy-4-(1-methyl-3-phenyl-1H-pyrazol-4-yl)quinazolin-6-yl]-5-methyl-2,5-diazabicyclo[4.1.0]heptane-2-carboxamide], the pIC50 was 8.49 in experiment [1], 8.40 in experiment [2] and 8.64 in experiment [3].

Regarding `COc1cc2ncnc(-c3cn(C)nc3-c3ccccc3)c2cc1NC(=O)c1cncc(C)c1` [Example 321, N-(7-methoxy-4-(1-methyl-3-phenyl-1H-pyrazol-4-yl)quinazolin-6-yl)-5-methylnicotinamide], the pIC50 is 8.28 in experiment [1], 8.28 in experiment [2] and 8.57 in experiment [3].

As for `COc1cc2ncnc(-c3cn(C)nc3-c3ccccc3F)c2cc1N1CCOCC1` [Example 159, 4-(4-(3-(2-fluorophenyl)-1-methyl-1H-pyrazol-4-yl)-7-methoxyquinazolin-6-yl)morpholine], the pIC50 in experiment [1] is 8.52; in experiment [2] it was 8.42; in experiment [3], 8.82.

Regarding `COc1cc2ncnc(-c3cn(C)nc3-c3ccccc3)c2nc1NC(=O)c1cn(C(C)C)nc1C` [Example 310, 1-isopropyl-N-(7-methoxy-4-(1-methyl-3-phenyl-1H-pyrazol-4-yl)pyrido[3,2-d]pyrimidin-6-yl)-3-methyl-1H-pyrazole-4-carboxamide], the pIC50 in experiment [1] was 8.47; in experiment [2] it was 8.51; in experiment [3] it was 8.89.

As to `Cn1cc(-c2ncnc3cc(O)c(NC(=O)C4(C(F)(F)F)CC4)nc23)c(-c2ccccc2)n1` [Example 464, N-[7-hydroxy-4-(1-methyl-3-phenyl-1H-pyrazol-4-yl)pyrido[3,2-d]pyrimidin-6-yl]-1-(trifluoromethyl)cyclopropane-1-carboxamide], the pIC50 in experiment [1] is 9.05; in experiment [2] it was 8.85; in experiment [3], 9.52.

For the compound `COc1cc2ncnc(-c3cn(C)nc3-c3ccccc3)c2cc1OC(=O)N1CCN(C)[C@H](C)[C@@H]1C` [Example 98, 7-methoxy-4-(1-methyl-3-phenyl-1H-pyrazol-4-yl)quinazolin-6-yl (2S,3R)-2,3,4-trimethylpiperazine-1-carboxylate], the pIC50 in experiment [1] is 8.17; in experiment [2], 8.03; in experiment [3], 8.47.

As to `COc1cc2ncnc(-c3cn(CC(F)F)nc3-c3ccccc3)c2cc1C(C)(C)O` [Example 122, 2-(4-(1-(2,2-difluoroethyl)-3-phenyl-1H-pyrazol-4-yl)-7-methoxyquinazolin-6-yl) propan-2-ol], the pIC50 in experiment [1] is 8.72; in experiment [2], 8.55; in experiment [3] it was 8.89.

For the compound `COc1cc2ncnc(-c3cn(C)nc3-c3ccccc3)c2nc1NC(=O)[C@@]1(C)CCCO1` [Example 363, (R)-N-(7-methoxy-4-(1-methyl-3-phenyl-1H-pyrazol-4-yl)pyrido[3,2-d]pyrimidin-6-yl)-2-methyltetrahydrofuran-2-carboxamide], the pIC50 in experiment [1] was 8.27; in experiment [2], 8.46; in experiment [3], 8.77.

`CCOc1cc2ncnc(-c3cn(CC)nc3-c3ccccc3)c2cc1[C@H](C)O` (single isomer, unassigned) [Example 107, (S)-1-(7-ethoxy-4-(1-ethyl-3-phenyl-1H-pyrazol-4-yl)quinazolin-6-yl)ethan-1-ol or (R)-1-(7-ethoxy-4-(1-ethyl-3-phenyl-1H-pyrazol-4-yl)quinazolin-6-yl)ethan-1-ol]: the pIC50 in experiment [1] was 8.89; in experiment [2] it was 8.48; in experiment [3], 9.22.

Turning to `COc1cc2ncnc(-c3cn(C)nc3-c3ccccc3)c2cc1NC(=O)[C@H]1CCN1C` (single isomer, unassigned) [Example 253, (R)—N-(7-methoxy-4-(1-methyl-3-phenyl-1H-pyrazol-4-yl)quinazolin-6-yl)-1-methylazetidine-2-carboxamide or (S)—N-(7-methoxy-4-(1-methyl-3-phenyl-1H-pyrazol-4-yl)quinazolin-6-yl)-1-methylazetidine-2-carboxamide], the figures for the pIC50 in experiment [1], in experiment [2] and in experiment [3] were 8.62, 8.41 and 8.72, respectively.

In the case of `[2H]C([2H])([2H])n1cc(-c2ncnc3cc(OC)c(NC(=O)C45CC(N(C)C)(C4)C5)nc23)c(-c2ccccc2)n1` [Example 494], the pIC50 in experiment [1] was 8.36; in experiment [2] it was 8.44; in experiment [3] it was 8.92.

For `COc1cc2ncnc(-c3cn(C)nc3-c3ccccc3)c2nc1OC(C)c1cocn1` (stereo not drawn) [Example 28, 4-(1-((7-methoxy-4-(1-methyl-3-phenyl-1H-pyrazol-4-yl)pyrido[3,2-d]pyrimidin-6-yl)oxy)ethyl)oxazole], the values for the pIC50 in experiment [1], in experiment [2] and in experiment [3] were 8.92, 9.15 and 9.05, respectively.

As for `[2H]C([2H])([2H])N1CCN(C(=O)Nc2cc3c(-c4cn(C)nc4-c4ccccc4)ncnc3cc2OC)[C@@H](C)C1` [Example 181, (S)—N-(7-methoxy-4-(1-methyl-3-phenyl-1H-pyrazol-4-yl)quinazolin-6-yl)-2-methyl-4-(methyl-d3) piperazine-1-carboxamide], the values for the pIC50 in experiment [1], in experiment [2] and in experiment [3] were 8.37, 8.35 and 8.57, respectively.

As a reminder, the pIC50 is the negative decadic logarithm of the IC50, by convention in mol/L.
